Assay results as given in patent US20250059520A1, “SGK1 INHIBITORY COMPOSITIONS AND METHODS” (Arizona Board of Regents on Behalf of the University of …, priority 2021, published 2025).
Ends that are not written are not given here.

Tests used:
[1] = tested on: TAC-induced heart failure with reduced ejection fraction; test: Heart failure induced by transaortic constriction (TAC) in mice, echocardiography; format: in vivo, mouse
Excerpt: Animals were randomly assigned to cohorts and a five-digit identifier number.
FIGS. 18A to 18D show LV mass (FIG. 18A), ejection fraction (FIG. 18B), cardiac stiffening (E/e′) (FIG. 18C), and A wave (FIG. 18D) in mice treated with control peptide, SGK1 peptide, or delayed treatment of SGK1 peptide. The mice were 4-weeks into a 6-week heart failure paradigm induced by transaortic constriction (TAC), a gold standard preclinical model of heart failure with reduced ejection fraction. […] Consistent pressure gradients to confirm standardized severity of the TAC procedure across cohorts is performed 1-week post-TAC via carotid flow Doppler ratios of the inominate to left common carotids.

[2] = tested on: isolated adult mouse ventricular myocytes (AMVMs); test: Uptake, hypertrophic growth and ANP mRNA in AMVMs treated ± PE for 24 h; format: cell-based; settings: AMVMs ± PE 24 h, several peptide doses
Method: FIGS. 12A to 12E show TAT-SGK1-(Pep) Stops Growth of Myocytes.
(§1) TAT-SGK1-(Pep) inhibits myocyte growth and fibroblast activation: Next, a SGK1-(Pep) peptide was designed and synthesized with an N-terminal TAT sequence to facilitate its direct delivery to cultured cells, and potentially to mice. To test its effectiveness, isolated adult mouse ventricular myocytes (AMVMs) were treated with either vehicle or a FITC-labeled form of the peptide, then imaged to show uptake (FIG. 12A). […] Thus, the TAT-SGK1-(Pep) affects AMVM growth as anticipated. […] Finally, since TGFβ-stimulated SGK1 has been implicated in fibrosis (Artunc F and Lang F. Nephron Physiol. 2014 128:35-9), a major maladaptive aspect of pressure overload cardiac pathology, the effects of the TAT-SGK1-(Pep) on TGFβ-mediated induction of two markers of fibrosis, α-smooth muscle actin (α-SMA) and periostin, was examined in adult mouse ventricular fibroblasts (AMVF). […] These findings underscore the SGK1-specificity of the peptide, as well as the possibility that some of the adaptive effects of the peptide could include dampening inflammasome activation and decreasing fibrosis.

[3] = tested on: endogenous SGK1; test: Rate of endogenous SGK1 degradation in NRVM; format: cell-based, rat; settings: degradation dependent on Hrd1
[4] = tested on: endogenous SGK1; test: Rate of endogenous SGK1 degradation in AMVM; format: cell-based, mouse
[5] = tested on: adult mouse ventricular fibroblasts (AMVF); test: TGFβ-mediated induction of fibrosis and inflammasome marker mRNAs in AMVF (qRT-PCR); format: cell-based; settings: 48 h
Method: FIGS. 13A to 13C show effects of TAT-SGK1-(Pep) in AMVFs: TAT-SGK1-(Pep) [P] added to AMVFs at the conc shown±TGFβ. 48 h later cultures analyzed for α-SMA (FIG. 13A), periostin (FIG. 13B), IL1b (FIG. 13C) mRNAs shown by qRT-PCR. n=3 cultures/treatment*$ p<0.05 different from all other values (ANOVA).
as §1

[6] = target: T1, GILZ (Rattus norvegicus, UniProt Q9EQZ1); test: FLAG immunoprecipitation of GILZ from NRVM infected with AdV-FLAG-SGK1(122-157); format: binding
T1 construct: FLAG IP efficiently pulled down the FLAG-SGK peptide (5, 6) as well as GILZ (7, 8); endogenous in cells; host or cells: NRVM (neonatal rat ventricular myocytes) infected with AdV-Con or AdV-FLAG-SGK1(122-157)
T1 sequence (Q9EQZ1 1-134): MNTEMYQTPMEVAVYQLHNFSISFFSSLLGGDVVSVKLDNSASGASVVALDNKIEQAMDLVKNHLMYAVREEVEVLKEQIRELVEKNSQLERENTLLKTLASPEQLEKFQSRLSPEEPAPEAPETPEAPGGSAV
Excerpt: (§2) FIGS. 11A to 11C show SGK1(122-157) Interrupts SGK1/GILZ Interaction and Decreases Cardiac Myocyte Growth. FIG. 11A illustrates how a small SGK1-related peptide could disrupt SGK1-GILZ interaction, increase SGK1 degradation and reduce cardiac myocyte growth. […] NRVM were infected with AdV-Con or FLAG-SGK-(122-157). […] FLAG IP efficiently pulled down the FLAG-SGK peptide (5, 6) as well as GILZ (7, 8).
(§3) Thus, it is anticipated that AAV9-FLAG-SGK1-(Pep) can increase SGK1 degradation and, thus, blunt pressure overload-induced pathological cardiac hypertrophy and subsequent heart failure in mice, in vivo.

[7] = tested on: neonatal rat ventricular myocytes (NRVMs); test: PE-mediated ANP expression, growth and SGK1 degradation in NRVM with ectopic expression of the SGK1 peptide; format: cell-based; settings: NRVM ± AdV-SGK1 peptide
Excerpt: as §2
SGK1 and GILZ were shown herein to be increased in pathological hypertrophic human and mouse hearts. In mice, SGK1 degradation was slowed during pressure overload. Cardiac-specific deletion of SGK1 in mice decreased pressure overload-induced hypertrophy, whereas overexpression of SGK1 increased it. Removing the SGK1 ER-targeting sequence, or overexpressing GILZ decreased SGK1 degradation in neonatal rat ventricular myocytes (NRVMs) and increased growth; GILZ knockdown decreased growth. A 35 amino acid region in SGK1 that interacts with GILZ was identified; ectopic expression of this peptide increased SGK1 degradation and decreased NRVM growth.
as §3

[8] = chronic administration, 4 weeks into 6-week TAC paradigm

In the case of “GRKKRRQRRRPQVFYAVKVLQKKAILKKKEEKHIMSERNVLLKNVKHP [TAT-SGK1-(Pep)]”, the “TAC-induced left ventricular hypertrophy (LV Mass)” value [1, 8] is reported as “conferring protection”, the “diastolic dysfunction and cardiac stiffening (E/e′)” value [1, 8] is reported as “conferring protection” and the “early indicator of congestion (mitral atrial flow velocity, A wave)” value [1, 8] is reported as “conferring protection”. The “systolic dysfunction (ejection fraction)” value [1, 8] was “conferring protection”, the toxic effects [1, 8] was “no signs of untoward toxic effects” and the “cardiac dysfunction and remodeling” value ([1]; delayed administration starting at 2-weeks post-TAC) was “shows signs of cardioprotection and reversal of early cardiac dysfunction and remodeling”. The “ANP mRNA” value [2] was “dose-dependent decrease”, the “cardiac myocyte remodeling (hypertrophic growth, width to length ratio)” value [2] was “dose-dependent decrease” and the “endogenous SGK1 degradation” value [3] was “accelerate endogenous SGK1 degradation”. For the same sequence, the “endogenous SGK1 degradation” value [4] was “accelerate endogenous SGK1 degradation”, the “TGFβ-mediated induction of periostin mRNA” value [5] was “effectively inhibited induction” and the “TGFβ-mediated induction of α-smooth muscle actin (α-SMA) mRNA” value [5] was “effectively inhibited induction”. The “mRNA for IL1β, marker of inflammasome activation” value [5] was “inhibited”.

In the case of “VFYAVKVLQKKAILKKKEEKHIMSERNVLLKNVKHP (not fully specified) [SGK1-(Pep), FLAG-tagged amino acids 122-157 of SGK1, ectopically expressed from an adenovirus (AdV)]”, the “binding to GILZ in IP experiments” value [6] is reported as “could bind to GILZ” and the “PE-mediated ANP expression (ANP mRNA)” value [7] is reported as “blunted PE-mediated ANP expression”.
